Source: patent US20240158438A1, “POLYPEPTIDE COMPOUND AND APPLICATION THEREOF” (CHENGDU SINTANOVO BIOTECHNOLOGY CO., LTD., priority 2021, published 2024)
Non-standard residues stand in square brackets, D forms with d. Residues, ends and D or L forms follow the SMILES beside them. *: point of attachment. Pyrrolidine3carbonyl(3S) = O=C([C@H]1CCNC1)*; dBta = N[C@H](Cc1csc2ccccc12)C(=O)O; dTle = CC(C)(C)[C@@H](N)C(=O)O; Ac4c(3-oxa) = NC1(C(=O)O)COC1; Tle = CC(C)(C)[C@H](N)C(=O)O; X1 = N[C@H]1CCC[C@H]1C(=O)*; Api = NC1(C(=O)O)CCNCC1; Abu = CC[C@H](N)C(=O)O; X3 = NCC1(C(=O)*)CCC1

Columns and labels:
CYP 2D6 = CYP 2D6 (Homo sapiens (Human), UniProt P10635); assay type: in vitro ADME; conditions: microsomes, 10 min
Experimental: (§1) Human liver microsomes containing cytochrome P450 (0.253 mg/mL protein) were incubated with test compounds (0.05-50 μM), CYPs substrates (10 μM […], 5 μM diclofenac, 30 μM mephenytoin, 5 μM dextromethorphan hydrobromide and 2 μM midazolam) and 1.0 mM NADP at 37° C. for 10 min. Naphthoflavone, sulfaphenazole, N-3-benzylnirvanol, quinidine and ketoconazole were used as reference inhibitors.

CYP 2C19 = CYP 2C19 (Homo sapiens (Human), UniProt P33261); assay type: in vitro ADME; conditions: microsomes, 10 min
Experimental: as §1

CYP 2C9 = CYP 2C9 (Homo sapiens (Human), UniProt P11712); assay type: in vitro ADME; conditions: microsomes, 10 min
Experimental: as §1

CYP 3A4 = CYP 3A4 (Homo sapiens (Human), UniProt P08684); assay type: in vitro ADME; conditions: microsomes, 10 min
Experimental: as §1

CYP1A2 = CYP1A2 (Homo sapiens (Human), UniProt P05177); assay: in vitro; assay type: in vitro ADME; conditions: microsomes; for IC50: 10 min
Experimental: as §1

GHSR-1a = GHSR-1a (Homo sapiens (Human), UniProt Q92847); assay: Agonistic activity for GHSR-1a, FLIPR calcium assay; assay type: cell-based; conditions: agonist activity assay, Flp In-CHO-GHSR Stable Pool cells, FLIPR calcium 6 kit; read-out: The activity (IC50) of polypeptide compounds for GHSR-1a
GHSR-1a, sequence (Q92847 whole entry): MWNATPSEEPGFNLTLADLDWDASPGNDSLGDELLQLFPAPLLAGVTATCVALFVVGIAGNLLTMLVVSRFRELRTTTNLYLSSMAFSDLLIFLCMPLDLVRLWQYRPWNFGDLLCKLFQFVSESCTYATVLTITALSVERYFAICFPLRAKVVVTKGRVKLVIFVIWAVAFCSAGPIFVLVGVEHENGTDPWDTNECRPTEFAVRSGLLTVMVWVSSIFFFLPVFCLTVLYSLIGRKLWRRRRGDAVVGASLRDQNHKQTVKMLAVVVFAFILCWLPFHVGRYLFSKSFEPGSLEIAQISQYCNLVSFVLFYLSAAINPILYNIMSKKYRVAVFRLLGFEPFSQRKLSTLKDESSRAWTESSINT

CYP 2D6, sequence (P10635 whole entry): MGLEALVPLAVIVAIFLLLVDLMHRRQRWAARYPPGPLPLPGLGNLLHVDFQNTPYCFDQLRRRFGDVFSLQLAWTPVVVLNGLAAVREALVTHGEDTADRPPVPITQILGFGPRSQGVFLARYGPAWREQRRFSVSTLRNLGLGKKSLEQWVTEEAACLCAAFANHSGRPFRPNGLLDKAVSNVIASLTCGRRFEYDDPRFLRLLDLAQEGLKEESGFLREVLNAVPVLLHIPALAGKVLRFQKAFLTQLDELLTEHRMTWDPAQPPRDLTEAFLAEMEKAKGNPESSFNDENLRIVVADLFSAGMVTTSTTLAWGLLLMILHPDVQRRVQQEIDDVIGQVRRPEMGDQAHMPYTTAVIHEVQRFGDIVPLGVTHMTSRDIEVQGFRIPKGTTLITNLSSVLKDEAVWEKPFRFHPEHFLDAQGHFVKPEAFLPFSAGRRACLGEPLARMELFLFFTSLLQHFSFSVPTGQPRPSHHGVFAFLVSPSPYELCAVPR
CYP1A2, sequence (P05177 whole entry): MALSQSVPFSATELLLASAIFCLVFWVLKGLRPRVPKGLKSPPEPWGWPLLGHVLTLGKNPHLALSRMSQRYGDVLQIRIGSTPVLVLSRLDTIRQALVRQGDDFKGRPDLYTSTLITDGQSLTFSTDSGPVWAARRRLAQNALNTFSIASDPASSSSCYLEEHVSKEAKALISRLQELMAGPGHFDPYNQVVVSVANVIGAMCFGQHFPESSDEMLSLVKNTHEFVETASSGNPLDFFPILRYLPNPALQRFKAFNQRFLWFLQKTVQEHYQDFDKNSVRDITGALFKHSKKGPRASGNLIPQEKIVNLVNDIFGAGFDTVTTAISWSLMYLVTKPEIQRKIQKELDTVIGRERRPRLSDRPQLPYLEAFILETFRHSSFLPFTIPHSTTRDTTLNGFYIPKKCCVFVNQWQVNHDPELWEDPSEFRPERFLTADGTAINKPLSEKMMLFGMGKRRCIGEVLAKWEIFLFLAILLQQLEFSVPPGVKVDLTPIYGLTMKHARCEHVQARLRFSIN
CYP 2C9, sequence (P11712 whole entry): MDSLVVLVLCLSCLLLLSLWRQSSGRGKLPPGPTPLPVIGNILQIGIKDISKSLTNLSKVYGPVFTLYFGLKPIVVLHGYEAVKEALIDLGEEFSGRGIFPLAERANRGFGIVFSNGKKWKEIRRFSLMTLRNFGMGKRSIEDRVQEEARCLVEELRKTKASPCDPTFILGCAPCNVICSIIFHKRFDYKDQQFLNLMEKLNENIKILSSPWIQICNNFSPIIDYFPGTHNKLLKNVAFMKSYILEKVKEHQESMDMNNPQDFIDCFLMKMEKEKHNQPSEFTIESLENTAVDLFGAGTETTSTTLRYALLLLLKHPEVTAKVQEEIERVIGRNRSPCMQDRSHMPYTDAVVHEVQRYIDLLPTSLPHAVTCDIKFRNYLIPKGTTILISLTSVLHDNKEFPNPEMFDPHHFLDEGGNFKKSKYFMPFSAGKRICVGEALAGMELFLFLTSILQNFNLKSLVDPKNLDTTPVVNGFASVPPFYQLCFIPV
CYP 2C19, sequence (P33261 whole entry): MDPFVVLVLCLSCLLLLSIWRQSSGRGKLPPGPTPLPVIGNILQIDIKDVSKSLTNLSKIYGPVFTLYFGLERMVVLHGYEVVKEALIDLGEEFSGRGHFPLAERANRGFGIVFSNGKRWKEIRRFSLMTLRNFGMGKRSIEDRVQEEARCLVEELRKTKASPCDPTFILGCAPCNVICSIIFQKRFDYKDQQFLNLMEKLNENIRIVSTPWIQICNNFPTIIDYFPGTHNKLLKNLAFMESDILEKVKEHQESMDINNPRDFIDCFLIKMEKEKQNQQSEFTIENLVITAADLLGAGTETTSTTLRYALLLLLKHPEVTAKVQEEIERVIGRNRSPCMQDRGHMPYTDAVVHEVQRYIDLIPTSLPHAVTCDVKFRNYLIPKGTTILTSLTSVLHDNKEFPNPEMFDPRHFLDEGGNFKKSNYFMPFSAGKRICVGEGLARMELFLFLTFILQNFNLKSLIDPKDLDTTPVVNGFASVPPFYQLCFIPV
CYP 3A4, sequence (P08684 whole entry): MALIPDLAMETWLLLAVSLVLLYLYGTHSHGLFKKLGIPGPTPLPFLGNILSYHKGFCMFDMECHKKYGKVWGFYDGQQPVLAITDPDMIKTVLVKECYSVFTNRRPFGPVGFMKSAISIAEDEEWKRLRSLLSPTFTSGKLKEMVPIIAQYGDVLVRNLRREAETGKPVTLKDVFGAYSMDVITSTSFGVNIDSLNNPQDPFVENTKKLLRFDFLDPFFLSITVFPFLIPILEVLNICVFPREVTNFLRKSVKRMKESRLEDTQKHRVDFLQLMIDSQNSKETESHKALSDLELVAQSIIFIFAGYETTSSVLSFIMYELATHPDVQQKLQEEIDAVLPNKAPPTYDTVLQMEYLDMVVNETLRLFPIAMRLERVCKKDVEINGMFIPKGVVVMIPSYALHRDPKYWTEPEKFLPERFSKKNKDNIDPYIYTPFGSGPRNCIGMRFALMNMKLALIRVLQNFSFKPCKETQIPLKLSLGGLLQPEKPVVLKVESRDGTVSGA

Row | Compound | IC50 (CYP 2D6) [µM] | IC50 (CYP 2C19) [µM] | IC50 (CYP 2C9) [µM] | IC50 (CYP 3A4) [µM] | IC50 (CYP1A2) [µM] | IC50 (GHSR-1a) [µM] | IC50 at 10 min (CYP1A2) [µM]
1 | NCCCC[C@@H](NC(=O)[C@H](Cc1ccccc1)NC(=O)[C@@H](Cc1c[nH]c2ccccc12)NC(=O)[C@@H](Cc1csc2ccccc12)NC(=O)[C@@H]1CCCN1)C(N)=O [Compound 45] (H-P[dBta][dW]F[dK]-NH2) | > 50 | > 50 | > 50 | > 50 | > 50 | 0.0051 | –
2 | C[C@@H](N)C(=O)N[C@H](Cc1csc2ccccc12)C(=O)N[C@H](Cc1c[nH]c2ccccc12)C(=O)N[C@@H](Cc1ccccc1)C(=O)NC1(C(N)=O)CCNCC1 [Compound 12] (H-[dA][dBta][dW]F[Api]-NH2) | > 50 | > 50 | > 50 | > 50 | > 50 | 0.0537 | –
3 | CC(C)C[C@@H](N)C(=O)N[C@H](Cc1csc2ccccc12)C(=O)N[C@H](Cc1c[nH]c2ccccc12)C(=O)N[C@@H](Cc1ccccc1)C(=O)NC1(C(N)=O)CCNCC1 [Compound 14] (H-[dL][dBta][dW]F[Api]-NH2) | > 50 | > 50 | > 50 | > 50 | > 50 | 0.0332 | –
4 | CC[C@H](N)C(=O)N[C@H](Cc1csc2ccccc12)C(=O)N[C@H](Cc1c[nH]c2ccccc12)C(=O)N[C@@H](Cc1ccccc1)C(=O)N[C@H](CCCCN)C(N)=O [Compound 33] (H-[Abu][dBta][dW]F[dK]-NH2) | > 50 | > 50 | > 50 | > 50 | > 50 | 0.0031 | –
5 | CC(C)(C)[C@@H](N)C(=O)N[C@H](Cc1csc2ccccc12)C(=O)N[C@H](Cc1c[nH]c2ccccc12)C(=O)N[C@@H](Cc1ccccc1)C(=O)N[C@H](CCCCN)C(N)=O [Compound 47] (H-[dTle][dBta][dW]F[dK]-NH2) | > 50 | > 50 | > 50 | > 50 | > 50 | 0.0107 | –
6 | NCC1(C(=O)N[C@H](Cc2csc3ccccc23)C(=O)N[C@H](Cc2c[nH]c3ccccc23)C(=O)N[C@@H](Cc2ccccc2)C(=O)NC2(C(N)=O)CCNCC2)CCC1 [Compound 22] (X3-[dBta][dW]F[Api]-NH2) | > 50 | > 50 | > 50 | > 50 | > 50 | 0.0023 | –
7 | NC(=O)C1(NC(=O)[C@H](Cc2ccccc2)NC(=O)[C@@H](Cc2c[nH]c3ccccc23)NC(=O)[C@@H](Cc2csc3ccccc23)NC(=O)C2(N)COC2)CCNCC1 [Compound 24] (H-[Ac4c(3-oxa)][dBta][dW]F[Api]-NH2) | > 50 | > 50 | > 50 | > 50 | > 50 | 0.0054 | –
8 | CC[C@H](N)C(=O)N[C@H](Cc1csc2ccccc12)C(=O)N[C@H](Cc1c[nH]c2ccccc12)C(=O)N[C@@H](Cc1ccccc1)C(=O)NC1(C(N)=O)CCNCC1 [Compound 3] (H-[Abu][dBta][dW]F[Api]-NH2) | > 50 | > 50 | > 50 | > 50 | > 50 | 0.0172 | –

Next, values leading:

Row | IC50 (CYP 2D6) [µM] | IC50 (CYP 2C19) [µM] | IC50 (CYP 2C9) [µM] | IC50 (CYP 3A4) [µM] | IC50 (CYP1A2) [µM] | IC50 (GHSR-1a) [µM] | IC50 at 10 min (CYP1A2) [µM] | Compound
9 | > 50 | > 50 | > 50 | > 50 | > 50 | 0.0121 | – | CC(C)(C)[C@H](N)C(=O)N[C@H](Cc1csc2ccccc12)C(=O)N[C@H](Cc1c[nH]c2ccccc12)C(=O)N[C@@H](Cc1ccccc1)C(=O)N[C@H](CCCCN)C(N)=O [Compound 48] (H-[Tle][dBta][dW]F[dK]-NH2)
10 | > 50 | > 50 | > 50 | > 50 | > 50 | 0.0032 | – | NCCCC[C@@H](NC(=O)[C@H](Cc1ccccc1)NC(=O)[C@@H](Cc1c[nH]c2ccccc12)NC(=O)[C@@H](Cc1csc2ccccc12)NC(=O)[C@@H]1CCC[C@@H]1N)C(N)=O [Compound 51] (X1-[dBta][dW]F[dK]-NH2)
11 | > 50 | > 50 | > 50 | > 50 | – | 0.0136 | > 50 | NC(=O)[C@H](Cc1ccccc1)NC(=O)[C@@H](Cc1c[nH]c2ccccc12)NC(=O)[C@@H](Cc1csc2ccccc12)NC(=O)[C@H]1CNCCO1 [Compound 77]
12 | > 50 | > 50 | > 50 | > 50 | > 50 | 0.0055 | – | NCCCC[C@@H](NC(=O)[C@H](Cc1ccccc1)NC(=O)[C@@H](Cc1c[nH]c2ccccc12)NC(=O)[C@@H](Cc1csc2ccccc12)NC(=O)[C@H]1CCNC1)C(N)=O [Compound 56] ({Pyrrolidine3carbonyl(3S)}-[dBta][dW]F[dK]-NH2)
